Measurements from patent publication US10562857B2 (AFASCI, Inc., priority 2015, dated 2020).

Experiments:
[1] = biological target: Cav2.2 (N-type Ca channel) (Homo sapiens, UniProt Q00975); experiment: Patch clamp of Cav2.2 N-type Ca channel; assay type: cell-based; conditions: Table 2
hERG channel = biological target: T1, hERG channel (Homo sapiens, UniProt Q12809); experiment: hERG patch clamp in hERG-expressing CHO cells; assay type: cell-based; conditions: Table 2; read-out: hERG IC50
T1 construct: expressed in transfected cells; host or cells: CHO
Experimental: Sodium and potassium channels in the rodent DRG neurons were recorded and tested as described above. The human ether-a-go-go-related gene (hERG) encodes the rapidly activating potassium channel (IKr) contributing to the repolarization of the cardiac action potential. […] Therefore the representative example compounds in Table 2 were tested against the hERG channel.
Whole-cell patch clamp electrophysiology is employed to test compounds and a positive control compound. Extracellular Ringer's solution contains (in mM): NaCl (130), KCl (5), CaCl2 (1), Glucose (10), HEPES-Na (10) (pH 7.4 adjusted with HCl). Internal pipette solution contains (in mM): KF (120), CaCl2 (1), MgCl2 (1), KCl (10), EGTA (11), HEPES (10), KOH (11) (pH 7.2 adjusted with KOH). The hERG potassium currents are recorded under a holding potential of −80 mV and then depolarized to 40 mV for 2.5 seconds to activate the hERG channel. The peak tail currents are induced by a repolarizing pulse to −50 mV for 4 seconds. A 250 millisecond prepulse to −50 mV is applied for leak subtraction. This voltage-clamp pulse protocol is performed continuously during the experiment every 20 seconds allowing recovery from inactivation. For IC50 determination, each concentration is applied for 2 mins to reach a steady-state inhibitory level prior to the next higher concentrations tested. Each concentration is tested at 2-3 times (n=2-3).

[2] = system: PTZ-induced seizures in mice; experiment: Pentylenetetrazol (PTZ)-induced seizures in mice; assay type: in vivo, mouse
Experimental: FIG. 10. […] Sixty minutes (min) prior to receiving PTZ (40 mg/kg, I.P.), each mouse was pretreated with either an Example compound, ML218, Z944 or vehicle (2% DMSO in 0.5% HPC). Fatality rate (%) of mice in each group that dies within the 20 minutes observation period—was calculated. Both fatality rate and latency (data not shown) to death were used to evaluate the Example compound's ability to prevent death resulting from PTZ-induced seizures. A cutoff of 20 minutes was set for observational and statistical analysis purposes.
It is well known that antiepileptics, e.g. carbamazepine, lamotrigine and gabapentin are used for the treatment of neuropathic pain (Xie et al., 1995, Caviedes and Herranz, 2001). T-channel overactivation is involved in the generation of seizure activity (Huguenard, 1998, Cribbs et al., 2000, Perez-Reyes et al., 2009, Perez-Reyes, 2010). […] Fatality latency and rate—the percentage (%) of mice in each treatment group that died within a 20 minute cutoff of the observational period, were recorded and calculated. Averaged fatality latency and rate of each treatment group was used to evaluate the Example compound's ability to either prevent or delay the onset of PTZ-induced seizures and death.

[3] = 30 mg/kg I.P., PTZ 40 mg/kg I.P., 20 min cutoff

Cav2.2 (N-type Ca channel), sequence (Q00975 whole entry): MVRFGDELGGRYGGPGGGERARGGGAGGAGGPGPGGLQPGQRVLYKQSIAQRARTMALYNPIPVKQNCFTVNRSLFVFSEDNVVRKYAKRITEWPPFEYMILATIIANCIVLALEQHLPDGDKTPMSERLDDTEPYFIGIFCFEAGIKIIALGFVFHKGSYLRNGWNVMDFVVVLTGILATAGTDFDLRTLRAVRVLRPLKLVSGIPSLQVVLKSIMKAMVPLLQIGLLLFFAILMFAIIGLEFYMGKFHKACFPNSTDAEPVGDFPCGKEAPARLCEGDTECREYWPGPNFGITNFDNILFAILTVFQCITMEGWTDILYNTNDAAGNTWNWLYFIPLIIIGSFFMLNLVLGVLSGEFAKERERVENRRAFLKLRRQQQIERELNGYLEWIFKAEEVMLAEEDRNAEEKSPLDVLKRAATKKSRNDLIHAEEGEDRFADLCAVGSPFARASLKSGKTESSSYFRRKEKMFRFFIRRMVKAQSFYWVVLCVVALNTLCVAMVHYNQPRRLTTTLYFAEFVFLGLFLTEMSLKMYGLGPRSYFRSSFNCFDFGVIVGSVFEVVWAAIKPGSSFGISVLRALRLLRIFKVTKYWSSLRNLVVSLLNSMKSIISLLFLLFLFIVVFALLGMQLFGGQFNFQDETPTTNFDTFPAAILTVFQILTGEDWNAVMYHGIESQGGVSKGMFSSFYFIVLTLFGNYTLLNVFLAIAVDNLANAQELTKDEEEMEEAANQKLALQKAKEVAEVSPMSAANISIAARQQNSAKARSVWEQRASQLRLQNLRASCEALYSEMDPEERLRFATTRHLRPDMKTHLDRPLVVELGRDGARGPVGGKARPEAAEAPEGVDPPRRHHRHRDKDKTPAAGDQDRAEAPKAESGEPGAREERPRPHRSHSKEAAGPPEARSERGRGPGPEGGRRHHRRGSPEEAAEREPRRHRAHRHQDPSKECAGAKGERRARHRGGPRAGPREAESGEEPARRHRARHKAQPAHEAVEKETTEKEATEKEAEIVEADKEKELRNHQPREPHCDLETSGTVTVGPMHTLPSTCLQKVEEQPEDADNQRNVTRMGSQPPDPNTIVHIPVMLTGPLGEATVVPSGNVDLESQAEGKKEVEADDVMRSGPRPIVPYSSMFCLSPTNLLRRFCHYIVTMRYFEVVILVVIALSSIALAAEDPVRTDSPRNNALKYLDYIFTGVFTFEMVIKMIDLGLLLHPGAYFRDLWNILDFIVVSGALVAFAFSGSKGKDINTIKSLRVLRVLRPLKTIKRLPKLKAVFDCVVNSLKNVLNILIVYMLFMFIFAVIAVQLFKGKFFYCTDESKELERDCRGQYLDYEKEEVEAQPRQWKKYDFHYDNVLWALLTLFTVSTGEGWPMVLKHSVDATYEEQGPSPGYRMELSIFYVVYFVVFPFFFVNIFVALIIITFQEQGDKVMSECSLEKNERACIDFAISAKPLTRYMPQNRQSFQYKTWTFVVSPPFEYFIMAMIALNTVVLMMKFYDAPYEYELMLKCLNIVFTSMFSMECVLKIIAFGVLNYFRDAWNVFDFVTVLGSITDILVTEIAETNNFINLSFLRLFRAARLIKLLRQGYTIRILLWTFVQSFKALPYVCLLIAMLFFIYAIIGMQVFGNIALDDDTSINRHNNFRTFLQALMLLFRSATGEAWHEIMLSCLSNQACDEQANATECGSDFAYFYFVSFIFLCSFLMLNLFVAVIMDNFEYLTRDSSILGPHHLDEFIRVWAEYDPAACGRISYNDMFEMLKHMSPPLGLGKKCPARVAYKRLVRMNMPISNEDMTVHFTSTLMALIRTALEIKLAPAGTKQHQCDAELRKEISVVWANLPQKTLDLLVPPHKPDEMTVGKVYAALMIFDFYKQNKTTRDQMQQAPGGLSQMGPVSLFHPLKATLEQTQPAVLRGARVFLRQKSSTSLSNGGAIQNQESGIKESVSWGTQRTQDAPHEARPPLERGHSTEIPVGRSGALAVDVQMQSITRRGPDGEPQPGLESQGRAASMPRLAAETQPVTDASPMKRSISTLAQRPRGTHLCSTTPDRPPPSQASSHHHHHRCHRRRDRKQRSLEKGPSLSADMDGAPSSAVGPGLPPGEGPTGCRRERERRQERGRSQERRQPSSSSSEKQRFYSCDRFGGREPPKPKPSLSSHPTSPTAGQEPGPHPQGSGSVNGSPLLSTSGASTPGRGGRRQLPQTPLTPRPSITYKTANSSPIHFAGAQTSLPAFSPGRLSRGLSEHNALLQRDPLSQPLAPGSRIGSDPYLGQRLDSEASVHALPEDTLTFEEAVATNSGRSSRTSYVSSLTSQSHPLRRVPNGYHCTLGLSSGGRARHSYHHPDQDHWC
Cav2.2 (N-type Ca channel), sequence (P54289 25-1103 partner): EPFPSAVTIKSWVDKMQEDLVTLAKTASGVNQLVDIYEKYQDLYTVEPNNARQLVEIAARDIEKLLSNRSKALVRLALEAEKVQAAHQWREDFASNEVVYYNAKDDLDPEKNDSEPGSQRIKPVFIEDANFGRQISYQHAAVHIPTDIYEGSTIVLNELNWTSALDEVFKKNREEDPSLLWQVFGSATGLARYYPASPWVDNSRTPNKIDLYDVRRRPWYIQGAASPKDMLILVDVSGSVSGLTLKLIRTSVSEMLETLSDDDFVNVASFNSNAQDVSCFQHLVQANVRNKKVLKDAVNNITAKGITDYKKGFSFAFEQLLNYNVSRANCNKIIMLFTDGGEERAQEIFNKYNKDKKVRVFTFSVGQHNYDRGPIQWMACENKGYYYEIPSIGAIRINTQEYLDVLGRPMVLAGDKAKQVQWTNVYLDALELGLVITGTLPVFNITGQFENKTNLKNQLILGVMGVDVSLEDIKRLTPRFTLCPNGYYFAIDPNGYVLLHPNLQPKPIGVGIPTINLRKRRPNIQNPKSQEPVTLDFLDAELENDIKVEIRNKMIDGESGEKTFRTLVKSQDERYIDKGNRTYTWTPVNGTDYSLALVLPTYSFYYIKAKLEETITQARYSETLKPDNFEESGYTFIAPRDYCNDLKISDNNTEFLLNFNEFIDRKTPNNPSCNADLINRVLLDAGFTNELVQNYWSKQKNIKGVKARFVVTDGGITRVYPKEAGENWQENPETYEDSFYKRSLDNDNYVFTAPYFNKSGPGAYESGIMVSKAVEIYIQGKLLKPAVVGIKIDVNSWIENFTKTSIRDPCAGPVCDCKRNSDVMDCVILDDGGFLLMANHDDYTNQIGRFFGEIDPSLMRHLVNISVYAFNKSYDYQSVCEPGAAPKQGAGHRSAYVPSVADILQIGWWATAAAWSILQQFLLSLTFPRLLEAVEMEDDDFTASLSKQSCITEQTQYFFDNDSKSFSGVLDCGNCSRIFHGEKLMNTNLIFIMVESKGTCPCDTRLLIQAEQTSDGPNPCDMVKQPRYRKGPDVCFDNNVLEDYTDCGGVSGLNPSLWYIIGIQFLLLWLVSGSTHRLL
Cav2.2 (N-type Ca channel), sequence (Q08289 whole entry partner): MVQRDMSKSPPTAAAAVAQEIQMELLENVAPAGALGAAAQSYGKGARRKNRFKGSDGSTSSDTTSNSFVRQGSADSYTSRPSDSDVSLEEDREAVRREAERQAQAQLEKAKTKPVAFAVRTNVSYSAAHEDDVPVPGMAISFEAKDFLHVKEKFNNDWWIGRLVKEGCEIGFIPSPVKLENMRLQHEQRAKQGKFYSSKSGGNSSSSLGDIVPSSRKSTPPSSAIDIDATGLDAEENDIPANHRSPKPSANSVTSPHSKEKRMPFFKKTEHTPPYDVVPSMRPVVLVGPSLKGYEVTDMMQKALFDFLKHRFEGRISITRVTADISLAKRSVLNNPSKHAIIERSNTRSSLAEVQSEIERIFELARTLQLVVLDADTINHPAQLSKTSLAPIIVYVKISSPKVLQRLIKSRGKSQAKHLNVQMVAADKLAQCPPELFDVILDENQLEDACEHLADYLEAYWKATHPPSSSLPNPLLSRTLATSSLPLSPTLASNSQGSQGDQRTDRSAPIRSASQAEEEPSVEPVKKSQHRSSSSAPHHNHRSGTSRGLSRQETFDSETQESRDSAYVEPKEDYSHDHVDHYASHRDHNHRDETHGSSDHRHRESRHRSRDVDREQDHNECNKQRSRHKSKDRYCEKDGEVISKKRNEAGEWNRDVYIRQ

CC(C)(C)NC(=O)CN1CCC(CNC(=O)c2cc(F)cc(Cl)c2)CC1 [Z944, reference compound]
IC50 [1]: > 30 µM | IC50 (hERG channel): 9.5 µM | PTZ-induced Fatality (%) ([2]; 30 mg/kg I.P. 60 min before PTZ 40 mg/kg I.P., death within 20 min): 33.3% | latency to seizures ([2]; 30 mg/kg I.P., PTZ 40 mg/kg I.P.): significantly prolonged latencies to seizures | fatality latency [2, 3]: prolonged fatality latencies | fatality rate [2, 3]: decreased the fatality rate
